The results in this text go back to patent US11352359B2, “PI3K protein kinase inhibitors” (Rhizen Pharmaceuticals SA, priority 2013, dated 2022).

Structures are written as SMILES. Counter-ions that a name gives are not always drawn.

For one data set, the target named is PI3Kδ (Homo sapiens, UniProt O00329). Put plainly: Fluorescent determination of PI3Kinase enzyme activity (HTRF), PI3Kδ. In kind it is biochemical. The following applies: for inhibition at 0.1 µM: 100 nM (underlined values: 300 nM). From the text:
(§1) Fluorescent Determination of PI3Kinase Enzyme Activity
(§2) Phosphoinositide 3 kinases (PI3K) belong to a class of Lipid kinases that play a critical role in the regulation of several key cellular processes. The PI3K are capable of phosphorylating the 3-hydroxy position of phosphoinositols thereby generating second messengers involved in downstream signalling events. The homogenous time resolved fluorescence (HTRF) assay allows detection of 3,4,5-triphosphate (PIP3) formed as a result of phosphorylation of phosphotidylinositol 4,5-biphosphate (PIP2) by PI3K isoforms such as α, […], γ or δ.
(§3) PI3K isoform activity for α, β, γ or δ is to be determined using a PI3K human HTRF™ Assay Kit (Millipore, Billerica, Mass.) with modifications. All incubations were carried out at room temperature. Briefly, 0.5 μl of 40× inhibitor (in 100% DMSO) or 100% DMSO were added to each well of a 384-well black plate (Greiner Bio-One, Monroe, N.C.) containing 14.5 μl 1× reaction buffer/PIP2 (10 mM MgCl2, 5 mM DTT, 1.38 μM PIP2) mix with or without enzyme and incubated for 10 min. After the initial incubation, 5 μl/well of 400 μM ATP was added and incubated for an additional 30 minutes. Reaction was terminated by adding 5 μl/well stop solution (Millipore, Billerica, Mass.). Five microliters of detection mix (Millipore, Billerica, Mass.) were then added to each well and was incubated for 6-18 h in the dark. HRTF ratio was measured on a microplate reader (BMG Labtech, Germany) at an excitation wavelength of 337 nm and emission wavelengths of 665 and 620 nm with an integration time of 400 μsec. Data was analyzed using Graphpad Prism (Graphpad software; San Diego Calif.) for IC50 determination).

The next data set addresses PI3Kγ (Homo sapiens, UniProt P48736). Put plainly: Fluorescent determination of PI3Kinase enzyme activity (HTRF), PI3Kγ. It is filed as biochemical. The following applies: for inhibition at 0.1 µM: 100 nM (underlined values: 300 nM).
Description: as §1, §2, §3

Another data set concerns the target PI3Kα (Homo sapiens, UniProt P42336). Put plainly: Fluorescent determination of PI3Kinase enzyme activity (HTRF), PI3Kα. In kind it is biochemical.
Description: as §1, §2, §3

The target in a further data set is PI3Kβ (Homo sapiens, UniProt P42338). Put plainly: Fluorescent determination of PI3Kinase enzyme activity (HTRF), PI3Kβ. It is filed as biochemical.
Description: as §1, §2, §3

PI3Kβ, sequence (P42338 whole entry): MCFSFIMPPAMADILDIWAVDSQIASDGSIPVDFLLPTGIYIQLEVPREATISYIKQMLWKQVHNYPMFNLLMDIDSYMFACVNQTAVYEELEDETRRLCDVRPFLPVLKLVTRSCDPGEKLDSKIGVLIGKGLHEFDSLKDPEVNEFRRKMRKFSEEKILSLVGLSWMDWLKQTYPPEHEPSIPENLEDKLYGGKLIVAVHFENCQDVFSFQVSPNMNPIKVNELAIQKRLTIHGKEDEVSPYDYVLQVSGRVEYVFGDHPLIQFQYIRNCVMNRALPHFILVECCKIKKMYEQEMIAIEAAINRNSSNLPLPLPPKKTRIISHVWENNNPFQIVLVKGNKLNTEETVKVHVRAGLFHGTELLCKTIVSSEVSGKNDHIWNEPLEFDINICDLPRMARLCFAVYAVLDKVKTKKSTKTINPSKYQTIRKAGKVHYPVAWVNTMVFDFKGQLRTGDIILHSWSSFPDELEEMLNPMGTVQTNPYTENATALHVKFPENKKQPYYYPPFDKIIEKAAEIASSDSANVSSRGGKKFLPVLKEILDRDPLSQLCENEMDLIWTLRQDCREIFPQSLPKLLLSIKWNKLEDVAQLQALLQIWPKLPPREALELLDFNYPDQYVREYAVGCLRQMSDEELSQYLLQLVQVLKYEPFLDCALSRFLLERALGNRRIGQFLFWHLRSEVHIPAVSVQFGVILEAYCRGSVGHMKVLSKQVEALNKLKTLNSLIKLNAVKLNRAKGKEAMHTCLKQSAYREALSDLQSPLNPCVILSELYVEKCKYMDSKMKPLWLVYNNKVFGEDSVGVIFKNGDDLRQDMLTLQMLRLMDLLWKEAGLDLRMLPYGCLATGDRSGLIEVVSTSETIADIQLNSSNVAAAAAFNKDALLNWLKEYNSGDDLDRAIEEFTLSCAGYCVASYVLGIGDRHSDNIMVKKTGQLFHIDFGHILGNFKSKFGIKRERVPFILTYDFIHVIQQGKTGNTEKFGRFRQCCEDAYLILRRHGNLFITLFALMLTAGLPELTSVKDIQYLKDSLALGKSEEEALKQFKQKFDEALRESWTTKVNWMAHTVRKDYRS
PI3Kβ, sequence (P27986 whole entry partner): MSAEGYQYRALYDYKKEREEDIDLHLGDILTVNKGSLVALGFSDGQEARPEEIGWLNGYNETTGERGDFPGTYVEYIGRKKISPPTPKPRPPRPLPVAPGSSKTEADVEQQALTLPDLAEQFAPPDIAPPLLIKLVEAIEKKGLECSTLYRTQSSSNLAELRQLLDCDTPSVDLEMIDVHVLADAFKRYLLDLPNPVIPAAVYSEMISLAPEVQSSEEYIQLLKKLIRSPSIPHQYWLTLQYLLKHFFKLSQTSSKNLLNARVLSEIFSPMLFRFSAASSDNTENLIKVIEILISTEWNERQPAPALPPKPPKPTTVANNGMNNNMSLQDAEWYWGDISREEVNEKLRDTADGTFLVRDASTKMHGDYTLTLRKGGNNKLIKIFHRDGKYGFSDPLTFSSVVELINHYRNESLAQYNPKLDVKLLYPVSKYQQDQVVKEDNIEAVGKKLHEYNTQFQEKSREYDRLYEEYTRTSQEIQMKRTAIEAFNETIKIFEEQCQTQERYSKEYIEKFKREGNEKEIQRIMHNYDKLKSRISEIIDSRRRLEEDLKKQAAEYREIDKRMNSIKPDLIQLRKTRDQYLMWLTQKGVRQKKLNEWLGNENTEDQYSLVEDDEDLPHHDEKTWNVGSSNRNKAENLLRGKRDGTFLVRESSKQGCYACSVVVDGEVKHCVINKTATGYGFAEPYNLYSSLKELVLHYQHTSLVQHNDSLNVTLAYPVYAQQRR
PI3Kδ, sequence (O00329 whole entry): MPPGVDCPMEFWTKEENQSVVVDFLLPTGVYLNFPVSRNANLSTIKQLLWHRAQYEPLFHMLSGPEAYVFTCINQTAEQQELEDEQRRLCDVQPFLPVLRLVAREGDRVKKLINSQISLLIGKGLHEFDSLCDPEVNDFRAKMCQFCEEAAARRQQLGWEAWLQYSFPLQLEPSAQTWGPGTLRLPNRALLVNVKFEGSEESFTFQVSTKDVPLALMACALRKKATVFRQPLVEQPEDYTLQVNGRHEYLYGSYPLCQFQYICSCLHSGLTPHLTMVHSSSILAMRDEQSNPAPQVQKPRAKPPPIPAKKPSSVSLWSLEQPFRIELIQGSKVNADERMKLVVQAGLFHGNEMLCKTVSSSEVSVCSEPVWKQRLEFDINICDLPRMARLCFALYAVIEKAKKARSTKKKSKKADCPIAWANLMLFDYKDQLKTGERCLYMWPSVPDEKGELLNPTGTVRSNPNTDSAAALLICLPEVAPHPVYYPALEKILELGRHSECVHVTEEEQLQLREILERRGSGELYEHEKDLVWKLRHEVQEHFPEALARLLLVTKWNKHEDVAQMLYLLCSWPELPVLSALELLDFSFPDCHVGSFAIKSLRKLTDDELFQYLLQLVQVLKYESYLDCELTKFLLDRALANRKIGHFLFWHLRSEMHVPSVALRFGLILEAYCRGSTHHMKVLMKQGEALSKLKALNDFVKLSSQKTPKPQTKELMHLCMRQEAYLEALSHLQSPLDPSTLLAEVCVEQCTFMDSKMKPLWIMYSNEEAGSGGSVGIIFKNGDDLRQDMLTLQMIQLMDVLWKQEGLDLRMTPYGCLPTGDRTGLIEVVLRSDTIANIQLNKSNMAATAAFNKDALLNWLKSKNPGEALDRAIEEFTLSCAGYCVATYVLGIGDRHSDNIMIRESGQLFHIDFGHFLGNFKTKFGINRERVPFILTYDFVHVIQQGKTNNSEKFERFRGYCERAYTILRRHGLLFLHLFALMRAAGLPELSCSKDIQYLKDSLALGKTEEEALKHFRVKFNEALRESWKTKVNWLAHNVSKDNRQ
PI3Kδ, sequence (P27986 whole entry partner): as the sequence (P27986 whole entry partner) above
PI3Kα, sequence (P42336 whole entry): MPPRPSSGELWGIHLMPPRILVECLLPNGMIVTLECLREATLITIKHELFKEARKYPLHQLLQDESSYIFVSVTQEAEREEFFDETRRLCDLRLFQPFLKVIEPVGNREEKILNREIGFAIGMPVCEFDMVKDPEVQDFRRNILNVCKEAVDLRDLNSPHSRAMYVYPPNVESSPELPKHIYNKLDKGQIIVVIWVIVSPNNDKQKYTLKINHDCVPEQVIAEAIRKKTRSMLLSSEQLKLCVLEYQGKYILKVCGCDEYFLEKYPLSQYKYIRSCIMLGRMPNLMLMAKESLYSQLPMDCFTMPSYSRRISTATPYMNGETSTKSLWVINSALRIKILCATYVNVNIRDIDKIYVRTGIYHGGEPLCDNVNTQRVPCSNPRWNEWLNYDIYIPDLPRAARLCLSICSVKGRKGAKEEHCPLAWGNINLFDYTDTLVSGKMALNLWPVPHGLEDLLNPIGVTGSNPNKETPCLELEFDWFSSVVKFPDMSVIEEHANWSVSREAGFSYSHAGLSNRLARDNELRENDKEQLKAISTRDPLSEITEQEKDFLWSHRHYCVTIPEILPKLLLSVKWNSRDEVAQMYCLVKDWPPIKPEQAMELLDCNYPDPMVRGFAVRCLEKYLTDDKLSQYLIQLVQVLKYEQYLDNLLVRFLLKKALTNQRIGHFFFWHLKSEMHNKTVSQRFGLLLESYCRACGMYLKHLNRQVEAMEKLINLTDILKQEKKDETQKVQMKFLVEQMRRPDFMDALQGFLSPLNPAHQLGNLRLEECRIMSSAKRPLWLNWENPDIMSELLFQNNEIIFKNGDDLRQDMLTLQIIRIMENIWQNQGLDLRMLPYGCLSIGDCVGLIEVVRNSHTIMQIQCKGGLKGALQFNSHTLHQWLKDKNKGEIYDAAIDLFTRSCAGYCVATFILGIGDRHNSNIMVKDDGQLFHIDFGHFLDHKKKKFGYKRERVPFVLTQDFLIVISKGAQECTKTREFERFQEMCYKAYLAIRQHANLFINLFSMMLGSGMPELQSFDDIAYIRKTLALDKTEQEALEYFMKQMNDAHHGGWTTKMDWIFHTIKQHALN
PI3Kα, sequence (P27986 whole entry partner): as the sequence (P27986 whole entry partner) above
PI3Kγ, sequence (P48736 whole entry): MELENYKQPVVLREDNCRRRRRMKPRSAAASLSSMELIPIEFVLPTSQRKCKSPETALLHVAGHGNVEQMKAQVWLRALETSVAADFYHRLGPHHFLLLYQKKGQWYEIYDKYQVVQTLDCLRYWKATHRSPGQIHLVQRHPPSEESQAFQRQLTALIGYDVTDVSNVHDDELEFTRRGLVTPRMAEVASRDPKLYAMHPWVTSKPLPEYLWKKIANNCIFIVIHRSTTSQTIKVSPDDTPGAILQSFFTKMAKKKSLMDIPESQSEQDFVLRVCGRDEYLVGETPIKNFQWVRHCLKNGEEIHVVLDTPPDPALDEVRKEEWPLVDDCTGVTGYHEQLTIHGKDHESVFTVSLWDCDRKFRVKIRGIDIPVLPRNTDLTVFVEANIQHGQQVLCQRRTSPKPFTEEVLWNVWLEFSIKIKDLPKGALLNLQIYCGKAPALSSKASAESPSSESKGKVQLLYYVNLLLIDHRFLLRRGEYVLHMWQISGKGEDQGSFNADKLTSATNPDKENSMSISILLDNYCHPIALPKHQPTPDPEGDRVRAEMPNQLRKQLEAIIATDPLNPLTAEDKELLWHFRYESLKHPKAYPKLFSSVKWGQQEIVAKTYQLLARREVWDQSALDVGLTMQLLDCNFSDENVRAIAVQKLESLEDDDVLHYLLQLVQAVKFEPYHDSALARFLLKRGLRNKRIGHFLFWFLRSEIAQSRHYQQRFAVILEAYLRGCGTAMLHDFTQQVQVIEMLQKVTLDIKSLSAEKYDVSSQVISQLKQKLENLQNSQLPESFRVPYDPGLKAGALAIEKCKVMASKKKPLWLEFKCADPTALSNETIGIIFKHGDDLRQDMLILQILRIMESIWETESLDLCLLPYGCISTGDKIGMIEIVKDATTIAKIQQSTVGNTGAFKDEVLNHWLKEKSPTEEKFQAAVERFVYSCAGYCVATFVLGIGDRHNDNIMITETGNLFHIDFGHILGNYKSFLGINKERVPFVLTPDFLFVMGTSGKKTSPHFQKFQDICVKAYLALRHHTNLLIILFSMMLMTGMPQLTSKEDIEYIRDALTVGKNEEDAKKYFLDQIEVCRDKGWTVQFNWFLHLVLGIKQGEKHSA

On to `CC(C)Oc1ccc(-c2nn(C(C)c3cc4cccc(Cl)c4c(=O)n3-c3ccccc3)c3ncnc(N)c23)cc1F` (stereo not drawn) [Example 1, 3-(1-(4-amino-3-(3-fluoro-4-isopropoxyphenyl)-1H-pyrazolo[3,4-d]pyrimidin-1-yl)ethyl)-8-chloro-2-phenylisoquinolin-1(2H)-one], for which the melting point lay in the range of 164 to 166 °C. In addition, the inhibition at 0.1 µM against PI3Kδ was in the range of 20 to 40%. This compound gave an inhibition at 0.1 µM at PI3Kγ of 0 to 20%. The inhibition at 1 µM against PI3Kα is 0 to 10%. The compound further had an inhibition at 1 µM at PI3Kβ of 0 to 10%.
Regarding `CCC(c1nc2ccccc2c(=O)n1-c1ccccc1)n1nc(-c2ccc(OC(C)C)c(F)c2)c2c(N)ncnc21` (stereo not drawn) [Example 22, 2-{1-[4-Amino-3-(3-fluoro-4-isopropoxy-phenyl)-pyrazolo[3,4-d]pyrimidin-1-yl]-propyl}-3-phenyl-3H-quinazolin-4-one], the melting point was 261 to 263 °C.
The compound `CC(C)Oc1ccc(-c2nn(C(C)c3nc4ccccc4c(=O)n3-c3ccccc3)c3ncnc(N)c23)cc1F` (stereo not drawn) (as salt: potassium) [Example 6, 2-(1-(4-amino-3-(3-fluoro-4-isopropoxyphenyl)-1H-pyrazolo[3,4-d]pyrimidin-1-yl)ethyl)-3-phenylquinazolin-4(3H)-one] returned a melting point of 236 to 239 °C.
Still for that read-out and setting: the figure for `CC(c1cc2cccc(Cl)c2c(=O)n1-c1ccccc1)n1nc(-c2ccc(OC(F)F)c(F)c2)c2c(N)ncnc21` (stereo not drawn) (as salt: potassium) [Example 17, 3-(1-(4-amino-3-(4-(difluoromethoxy)-3-fluorophenyl)-1H-pyrazolo[3,4-d]pyrimidin-1-yl)ethyl)-8-chloro-2-phenylisoquinolin-1(2H)-one] is 160 to 162 °C; for `CC(C)Oc1ccc(-c2nn(C(C)c3nc4ccc(F)cc4c(=O)n3-c3ccccc3)c3ncnc(N)c23)cc1F` (stereo not drawn) (as salt: potassium) [Example 4, 2-(1-(4-amino-3-(3-fluoro-4-isopropoxyphenyl)-1H-pyrazolo[3,4-d]pyrimidin-1-yl)ethyl)-6-fluoro-3-phenylquinazolin-4(3H)-one] it is 215 to 218 °C.
On to `CC(C)Oc1ccc(-c2nn(C(C)c3nc4ccc(F)cc4c(=O)n3-c3ccccc3)c3ncnc(N)c23)cc1F` (stereo not drawn) [Example 4, 2-(1-(4-amino-3-(3-fluoro-4-isopropoxyphenyl)-1H-pyrazolo[3,4-d]pyrimidin-1-yl)ethyl)-6-fluoro-3-phenylquinazolin-4(3H)-one], for which the values for the inhibition at 0.1 µM on PI3Kδ and on PI3Kγ were 0 to 20% and 40 to 60%, respectively. Besides, the inhibition at 1 µM against PI3Kα was 0 to 10%; against PI3Kβ, 20 to 40%.
On to `Cc1n[nH]c2cc(-c3nn([C@@H](C)c4cc5cccc(Cl)c5c(=O)n4-c4ccccc4)c4ncnc(N)c34)ccc12` [Example 21a, (+)-3-(1-(4-amino-3-(3-methyl-1H-indazol-6-yl)-1H-pyrazolo[3,4-d]pyrimidin-1-yl)ethyl)-8-chloro-2-phenylisoquinolin-1(2H)-one], for which the figures for the inhibition at 0.1 µM on PI3Kδ and at PI3Kγ were 80 to 100% and 60 to 80%, respectively. In addition, the inhibition at 1 µM against PI3Kα and against PI3Kβ was 0 to 10% in each case.
Take `CC(C)Oc1ccc(-c2nn([C@@H](C)c3nc4ccccc4c(=O)n3-c3ccccc3)c3ncnc(N)c23)cc1F` [Example 6a, (+)-2-(1-(4-amino-3-(3-fluoro-4-isopropoxyphenyl)-1H-pyrazolo[3,4-d]pyrimidin-1-yl)ethyl)-3-phenylquinazolin-4(3H)-one]: the IC50 against PI3Kδ was found to be 2.74 nM; on PI3Kγ, 15 nM. For the same compound, the inhibition at 0.1 µM lay in the range of 80 to 100% on PI3Kδ and 40 to 60% against PI3Kγ. Besides, the inhibition at 1 µM against PI3Kα was in the range of 0 to 10%; at PI3Kβ, 20 to 40%.
`CC(C)Oc1ccc(-c2nn(C(C)c3cc4cccc(F)c4c(=O)n3-c3ccccc3)c3ncnc(N)c23)cc1F` (stereo not drawn) (as salt: potassium) [Example 2, 3-(1-(4-amino-3-(3-fluoro-4-isopropoxyphenyl)-1H-pyrazolo[3,4-d]pyrimidin-1-yl)ethyl)-8-fluoro-2-phenylisoquinolin-1(2H)-one] yielded a melting point of 264 to 266 °C.
